Tested on: 958767-090-R-J1-PDC spheroid growth
Experiment: Anticancer human tumor 958767-090-R-J1-PDC patient-derived head and neck squamous carcinoma cell line growth inhibition [IpAb]
Conditions: spheroids with HUVEC and MSC; for IC50: curve of first compound; for viability, T/C: stronger effect = lower value
In short: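 Combinations with ipatasertib or abemaciclib were tested on tumour spheroids holding HUVEC (25%) and MSC (15%) alongside 60% malignant cells. Top concentration was at or near clinical Cmax (10 microM if undefined), descending in half-log steps.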

[1] = second compound 0.01 µM, first compound 0.0316 µM
[2] = second compound 0.01 µM, first compound 0.1 µM
[3] = second compound 0.01 µM, first compound 0.316 µM
[4] = second compound 0.01 µM, first compound 1 µM
[5] = second compound 0.01 µM, first compound 3.16 µM
[6] = second compound 0.01 µM, first compound 10 µM
[7] = second compound 0.0316 µM, first compound 0.0316 µM
[8] = second compound 0.0316 µM, first compound 0.1 µM
[9] = second compound 0.0316 µM, first compound 0.316 µM
[10] = second compound 0.0316 µM, first compound 1 µM
[11] = second compound 0.0316 µM, first compound 3.16 µM
[12] = second compound 0.0316 µM, first compound 10 µM
[13] = second compound 0.1 µM, first compound 0.0316 µM
[14] = second compound 0.1 µM, first compound 0.1 µM
[15] = second compound 0.1 µM, first compound 0.316 µM
[16] = second compound 0.1 µM, first compound 1 µM
[17] = second compound 0.1 µM, first compound 3.16 µM
[18] = second compound 0.1 µM, first compound 10 µM
[19] = second compound 0.316 µM, first compound 0.0316 µM
[20] = second compound 0.316 µM, first compound 0.1 µM
[21] = second compound 0.316 µM, first compound 0.316 µM
[22] = second compound 0.316 µM, first compound 1 µM
[23] = second compound 0.316 µM, first compound 3.16 µM
[24] = second compound 0.316 µM, first compound 10 µM
[25] = second compound 1 µM, first compound 0.0316 µM
[26] = second compound 1 µM, first compound 0.1 µM
[27] = second compound 1 µM, first compound 0.316 µM
[28] = second compound 1 µM, first compound 1 µM
[29] = second compound 1 µM, first compound 3.16 µM
[30] = second compound 1 µM, first compound 10 µM
[31] = second compound 0.01 µM, first compound 0.00949 µM
[32] = second compound 0.01 µM, first compound 0.03 µM
[33] = second compound 0.01 µM, first compound 0.0949 µM
[34] = second compound 0.01 µM, first compound 0.3 µM
[35] = second compound 0.0316 µM, first compound 0.00949 µM
[36] = second compound 0.0316 µM, first compound 0.03 µM
[37] = second compound 0.0316 µM, first compound 0.0949 µM
[38] = second compound 0.0316 µM, first compound 0.3 µM
[39] = second compound 0.1 µM, first compound 0.00949 µM
[40] = second compound 0.1 µM, first compound 0.03 µM
[41] = second compound 0.1 µM, first compound 0.0949 µM
[42] = second compound 0.1 µM, first compound 0.3 µM
[43] = second compound 0.316 µM, first compound 0.00949 µM
[44] = second compound 0.316 µM, first compound 0.03 µM
[45] = second compound 0.316 µM, first compound 0.0949 µM
[46] = second compound 0.316 µM, first compound 0.3 µM
[47] = second compound 1 µM, first compound 0.00949 µM
[48] = second compound 1 µM, first compound 0.03 µM
[49] = second compound 1 µM, first compound 0.0949 µM
[50] = second compound 1 µM, first compound 0.3 µM
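Also: spheroids exposed to agents for 7 days.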
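For viability, T/C in this document: 100% = DMSO vehicle control wells.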

Molecule C=CC(=O)N1CCN(c2nc(=O)n(-c3c(C)ccnc3C(C)C)c3nc(-c4c(O)cccc4F)c(F)cc23)C(C)C1 (stereo not given) + CCN1CCN(Cc2ccc(Nc3ncc(F)c(-c4cc(F)c5nc(C)n(C(C)C)c5c4)n3)nc2)CC1 has an IC50 (second compound 0.01 µM) of 8410 nM, an IC50 (second compound 0.0316 µM) of 7730 nM and an IC50 (second compound 0.1 µM) of 8020 nM. It also gave an IC50 (second compound 0.316 µM) of 8180 nM, an IC50 (second compound 1 µM) of 9880 nM and a viability, T/C [1] of 96.3%. The viability, T/C [2] was 84.9%, the viability, T/C [3] was 94.4% and the viability, T/C [4] was 94.8%. For the same molecule, the viability, T/C [5] was 81.9%, the viability, T/C [6] was 44.3% and the viability, T/C [7] was 82.4%. The viability, T/C [8] was 84.8%, the viability, T/C [9] was 90.7% and the viability, T/C [10] was 92.3%. The viability, T/C [11] was 83.5%, the viability, T/C [12] was 40% and the viability, T/C [13] was 72.2%. The viability, T/C [14] was 70.2%, the viability, T/C [15] was 75.1% and the viability, T/C [16] was 94.2%. The viability, T/C [17] was 81.4%, the viability, T/C [18] was 43.3% and the viability, T/C [19] was 77%. The viability, T/C [20] was 55.1%, the viability, T/C [21] was 72.5% and the viability, T/C [22] was 94.1%. It also gave a viability, T/C [23] of 75.9%, a viability, T/C [24] of 44.9% and a viability, T/C [25] of 89.7%. It also gave a viability, T/C [26] of 82.4%, a viability, T/C [27] of 94.6% and a viability, T/C [28] of 96.1%. For the same molecule, the viability, T/C [29] was 87.7% and the viability, T/C [30] was 49.5%.
CC(=O)c1c(C)c2cnc(Nc3ccc(N4CCNCC4)cn3)nc2n(C2CCCC2)c1=O + CCN1CCN(Cc2ccc(Nc3ncc(F)c(-c4cc(F)c5nc(C)n(C(C)C)c5c4)n3)nc2)CC1 was tested, and the IC50 (second compound 0.01 µM) was > 300 nM, the IC50 (second compound 0.0316 µM) was > 300 nM and the IC50 (second compound 0.1 µM) was 137 nM. For the same molecule, the IC50 (second compound 0.316 µM) was 265 nM, the IC50 (second compound 1 µM) was > 300 nM and the viability, T/C (second compound 0.01 µM, first compound 0.000949 µM) was 80.7%. For the same molecule, the viability, T/C (second compound 0.01 µM, first compound 0.003 µM) was 72.5%, the viability, T/C [31] was 66.5% and the viability, T/C [32] was 64.3%. For the same molecule, the viability, T/C [33] was 59.6%, the viability, T/C [34] was 53.4% and the viability, T/C (second compound 0.0316 µM, first compound 0.000949 µM) was 73.8%. For the same molecule, the viability, T/C (second compound 0.0316 µM, first compound 0.003 µM) was 75.5%, the viability, T/C [35] was 54.2% and the viability, T/C [36] was 53.8%. It also gave a viability, T/C [37] of 56.5%, a viability, T/C [38] of 49.7% and a viability, T/C (second compound 0.1 µM, first compound 0.000949 µM) of 61.5%. For the same molecule, the viability, T/C (second compound 0.1 µM, first compound 0.003 µM) was 56.2%, the viability, T/C [39] was 65.7% and the viability, T/C [40] was 53.6%. For the same molecule, the viability, T/C [41] was 44.4%, the viability, T/C [42] was 50.9% and the viability, T/C (second compound 0.316 µM, first compound 0.000949 µM) was 54.2%. It also gave a viability, T/C (second compound 0.316 µM, first compound 0.003 µM) of 50.7%, a viability, T/C [43] of 57.2% and a viability, T/C [44] of 52.9%. For the same molecule, the viability, T/C [45] was 51.1%, the viability, T/C [46] was 47.9% and the viability, T/C (second compound 1 µM, first compound 0.000949 µM) was 65.2%. For the same molecule, the viability, T/C (second compound 1 µM, first compound 0.003 µM) was 63.8%, the viability, T/C [47] was 60.6% and the viability, T/C [48] was 65.2%. For the same molecule, the viability, T/C [49] was 62.2% and the viability, T/C [50] was 53.1%.
CC(C)(C)c1cnc(CSc2cnc(NC(=O)C3CCNCC3)s2)o1 + CCN1CCN(Cc2ccc(Nc3ncc(F)c(-c4cc(F)c5nc(C)n(C(C)C)c5c4)n3)nc2)CC1 gave an IC50 (second compound 0.01 µM) of 144 nM, an IC50 (second compound 0.0316 µM) of 134 nM and an IC50 (second compound 0.1 µM) of 93.6 nM. It also gave an IC50 (second compound 0.316 µM) of 42.9 nM, an IC50 (second compound 1 µM) of 48.1 nM and a viability, T/C [31] of 106%. It also gave a viability, T/C [32] of 97.6%, a viability, T/C [33] of 76.5% and a viability, T/C [34] of 2.6%. For the same molecule, the viability, T/C (second compound 0.01 µM, first compound 0.949 µM) was 2.82%, the viability, T/C (second compound 0.01 µM, first compound 3 µM) was 2.81% and the viability, T/C [35] was 98.5%. It also gave a viability, T/C [36] of 84.2%, a viability, T/C [37] of 70.5% and a viability, T/C [38] of 1.81%. For the same molecule, the viability, T/C (second compound 0.0316 µM, first compound 0.949 µM) was 2.35%, the viability, T/C (second compound 0.0316 µM, first compound 3 µM) was 1.86% and the viability, T/C [39] was 76.2%. For the same molecule, the viability, T/C [40] was 63.3%, the viability, T/C [41] was 50.1% and the viability, T/C [42] was 2.58%. It also gave a viability, T/C (second compound 0.1 µM, first compound 0.949 µM) of 1.95%, a viability, T/C (second compound 0.1 µM, first compound 3 µM) of 2.75% and a viability, T/C [43] of 71.2%. For the same molecule, the viability, T/C [44] was 59.6%, the viability, T/C [45] was 27.2% and the viability, T/C [46] was 1.79%. The viability, T/C (second compound 0.316 µM, first compound 0.949 µM) was 3.55%, the viability, T/C (second compound 0.316 µM, first compound 3 µM) was 3.21% and the viability, T/C [47] was 91.7%. For the same molecule, the viability, T/C [48] was 78.2%, the viability, T/C [49] was 9.34% and the viability, T/C [50] was 3.35%. The viability, T/C (second compound 1 µM, first compound 0.949 µM) was 3.92% and the viability, T/C (second compound 1 µM, first compound 3 µM) was 2.96%.
For Cn1nccc1Nc1nccc(-c2ccn(C(CO)c3ccc(Cl)c(F)c3)c(=O)c2)n1 (stereo not given) + CCN1CCN(Cc2ccc(Nc3ncc(F)c(-c4cc(F)c5nc(C)n(C(C)C)c5c4)n3)nc2)CC1, the IC50 (second compound 0.01 µM) was 1580 nM, the IC50 (second compound 0.0316 µM) was 1610 nM and the IC50 (second compound 0.1 µM) was 441 nM. It also gave an IC50 (second compound 0.316 µM) of 254 nM, an IC50 (second compound 1 µM) of 1020 nM and a viability, T/C [1] of 72.3%. It also gave a viability, T/C [2] of 62.5%, a viability, T/C [3] of 61.3% and a viability, T/C [4] of 55.5%. The viability, T/C [5] was 43.8%, the viability, T/C [6] was 24.9% and the viability, T/C [7] was 69.3%. The viability, T/C [8] was 60.3%, the viability, T/C [9] was 53% and the viability, T/C [10] was 55.2%. It also gave a viability, T/C [11] of 46.8%, a viability, T/C [12] of 17.1% and a viability, T/C [13] of 63.3%. The viability, T/C [14] was 50.6%, the viability, T/C [15] was 51.5% and the viability, T/C [16] was 46.4%. For the same molecule, the viability, T/C [17] was 36.8%, the viability, T/C [18] was 18.6% and the viability, T/C [19] was 61.4%. The viability, T/C [20] was 50.5%, the viability, T/C [21] was 46.8% and the viability, T/C [22] was 47.7%. The viability, T/C [23] was 31.6%, the viability, T/C [24] was 23.2% and the viability, T/C [25] was 71.1%. The viability, T/C [26] was 60.2%, the viability, T/C [27] was 60.2% and the viability, T/C [28] was 50.7%. It also gave a viability, T/C [29] of 38.8% and a viability, T/C [30] of 21.7%.
